Reference: US11446346B2, “Gastroretentive sustained release formulations of Bergenia ciliata” (COUNCIL OF SCIENTIFIC & INDUSTRIAL RESEARCH, priority 2017, dated 2022)
Read-outs that look alike come from different tables or passages of the source.

Legend:
TNF-α = assay: In-vitro cytokine inhibition in LPS-treated THP-1 cells (ELISA), TNF-α; assay type: cell-based, human; conditions: LPS 1 μg/ml, 24 h, sample 12.5 μg/mL
Protocol: (§1) For the in vitro analysis of pro-inflammatory cytokines (IL-6 and TNF-α), human leukemia THP-1 cells were seeded in a 24-well plate at a density of 4×10^5 cells/ml of RPMI medium per well. THP-1 cells were then treated with phorbol 12-myristate 13-acetate (20 ng/ml) for differentiation into macrophages for 18 h followed by a rest period of 48 h. Cells were further co-treated with test samples and 1 μg/ml of lipopolysaccharide (LPS) in a serum-free medium. Culture supernatant was harvested after 24 h for analysis of different cytokines by using OptEIA ELISA Kits from BD Biosciences. Total protein content for all the samples was calculated by using Bradford reagent from Bio-Rad Laboratories. All the samples were normalized by dividing cytokine concentration with total quantity of protein. Bergenin was reported earlier as an inhibitor of TNF-alpha and IL-6 and was therefore was used as a positive control in this assay.

in vivo = assay: in vivo; design: species or system SD rats; conditions: rat
Protocol: The study was performed in male SD rats. To determine oral bioavailability of bergenin, the bergenin was administered at 5 mg/kg by IV route and at 50 mg/kg by oral route. For comparative oral pharmacokinetic study of plain extract (IIIM-160-A002) and GRSR formulation (filled in 9el capsules), the dose equivalent to 6.2 mg/kg of bergenin was administered in SD rats in both these groups. Blood samples were collected (n=3/time point) at 0.083 (IV only), 0.25, 0.5, 1, 2, 4, 8 and 24 h, post-dose. At each time point about 200 μL of blood was collected by jugular vein into a labeled microfuge tube containing 200 mM K2EDTA solution (20 μL per mL of blood) and equivalent volume of heparinized saline was replaced following sample collection. The blood samples were processed to obtain the plasma samples within 30 min of scheduled sampling time. All plasma samples were stored below −60° C. until bioanalysis. The plasma samples were analyzed for bergenin content using a fit-for purpose LC-MS/MS method with a lower limit of quantification (LLOQ) of 9.95 ng/mL. The pharmacokinetic parameters of bergenin were calculated using the non-compartmental analysis tool of validated Phoenix® WinNonlin® software (version 6.3).

[1] = rats; cited from earlier work
[2] = cited from earlier work
IL-6 = assay: In-vitro cytokine inhibition in LPS-treated THP-1 cells (ELISA), IL-6; assay type: cell-based, human; conditions: LPS 1 μg/ml, 24 h, sample 12.5 μg/mL
Protocol: as §1

[3] = pH dependent stability of bergenin (HPLC, 24 h); assay type: physicochemical; conditions: at pH 7.4 and above
Protocol: The stability study was performed in pH 1.2 buffer, pH 4.0 buffer, phosphate buffer pH 6.8, phosphate buffered saline pH 7.4, SGF (pH 1.2), SIF (pH 6.8) and plasma. The % of bergenin hydrolyzed after 24 h was determined by HPLC analysis. The HPLC analysis was carried out using the method as described in example 2.

In the case of COc1c(O)cc2c(c1O)[C@@H]1O[C@H](CO)[C@@H](O)[C@H](O)[C@H]1OC2=O [Bergenin, bergenin], the inhibition at 12.5 µg/mL (TNF-α; Homo sapiens) is reported as 61%, the “TNF-α (pg/mL)/total protein (μg)” value (TNF-α) is reported as 2.40 ± 0.25 (pg/mL)/total protein (μg) and the bioavailability (in vivo; male, SD) is reported as 3%. It also gave an AUC(0-t) (in vivo; male, SD, iv, 5 mg/kg) of 874 ng·h/mL, a clearance (in vivo; male, SD, iv, 5 mg/kg) of 95.5 mL/min/kg and a half-life (in vivo; male, SD, iv, 5 mg/kg) of 0.318 h. For the same compound, the “volume of distribution relative to normal total body water content (0.7 L/kg in rats)” value (in vivo; male, SD, iv, 5 mg/kg) was ~1.50 fold, the AUC(0-t) (in vivo; male, SD, po, 50 mg/kg) was 269 ng·h/mL and the Cmax (in vivo; male, SD, po, 50 mg/kg) was 170 ng/mL. The half-life (in vivo; male, SD, po, 50 mg/kg) was 1.74 h, the “median time to reach the maximum plasma concentration” value (in vivo; male, SD, po, 50 mg/kg) was 0.25 h and the “clearance relative to normal hepatic blood flow (55 mL/min/kg in rats)” value (in vivo; iv, 5 mg/kg) was ~1.74 folds. For the same compound, the “plasma half-life (t1/2)” value [1] was 1 to 2 h, the “stability at acidic pH of stomach” value ([2]; pH 1.2) was “stable” and the “stability at intestinal pH” value ([2]; pH 6.8 and above) was “gets degraded”. For the same compound, the degradation half life ([2]; pH 7) was 14.4 h, the degradation half life ([2]; pH 8) was 2.9 h and the inhibition at 12.5 µg/mL (IL-6; Homo sapiens) was 98%. For the same compound, the “IL-6 (pg/mL)/total protein (μg)” value (IL-6) was 0.08 ± 0.107 (pg/mL)/total protein (μg) and the “hydrolysis of bergenin after 24 h” value [3] was “gets hydrolyzed to its lactone ring opened product”.
